Where “and” joins values, the source holds several entries; their conditions need not be identical. Equal entries are not always repeated.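 Cultured in 96-well plates, cells were exposed to test compound for 48 hours across five concentrations. Abbreviation: GI50, concentration required for 50% inhibition of growth. Definition used: TGI = concentration required for complete inhibition of growth.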
Tests used:
Experiment in all cases: NCI tumour cell line growth inhibition, 48 h
MDA-N = test system: MDA-N
P388 leukemia = test system: P388 leukemia
P388/ADR leukemia = test system: P388/ADR leukemia
SN12K1 renal = test system: SN12K1 renal

Question: With COc1cccc(/C=N/C(/N=C/c2cccc(OC)c2O)c2cccc(OC)c2O)c1O as the compound, how does the TGI (MDA-N) read?
Answer: The TGI was greater than 100 µM.

Question: How did the TGI (MDA-N) turn out when O=C(O)C1CC(O)CN1 (stereo not drawn) was run?
Answer: Its TGI is greater than 100 µM.

Question: With CC(C)CC(NC(=O)OC(C)(C)C)C(=O)Nc1ccc(Nc2nc(F)nc(-c3c4ccccc4cn3C)n2)cc1 (stereo not drawn) as the compound, how does the TGI (MDA-N) read?
Answer: Its TGI is greater than 100 µM.

Question: COC(=O)/C=C/c1cc2c(cc1-c1c(C(=O)O)cc(OC)c(OC)c1OC)OCO2 was tested. Which TGI (MDA-N) did it give?
Answer: Its TGI is greater than 10 µM.

Question: With CN(Cc1cc(C(C)(C)C)cc(Br)c1O)Cc1cc(C(C)(C)C)cc(Br)c1O as the compound, how does the TGI (MDA-N) read?
Answer: Its TGI is 15.9 µM.

Question: Which results are given for NCCCNCCCCNC(=O)C(O)NC(=O)CCCCCCN=C(N)N (stereo not drawn)?
Answer: GI50 (MDA-N): > 750 µM; TGI (MDA-N): > 5000 µM; TGI (P388 leukemia): 511 µM; TGI (P388/ADR leukemia): 750 µM; TGI (SN12K1 renal): 750 µM

Question: Which results are given for CCCCCCCc1cc2c3c(nc4ccccc42)C(=O)c2cccnc2-c3n1?
Answer: GI50 (MDA-N): 4.44 µM; TGI (MDA-N): 9.12 µM

Question: Which TGI (MDA-N) does the source give for CCOc1ccc2nc(NC(=O)C(=O)C(c3cnc4ccccc4n3)[N+](=O)[O-])sc2c1 (stereo not drawn) here?
Answer: The TGI was greater than 100 µM.

Question: With O=C1c2ccccc2S(=O)(=O)c2cc(-c3nn[nH]n3)ccc21 as the compound, how does the TGI (MDA-N) read?
Answer: The TGI was greater than 100 µM.

Question: O=c1c(O)c(-c2cc(O)c(O)c(O)c2)oc2cc(O)cc(O)c12 was tested. Which TGI (MDA-N) did it give?
Answer: Its TGI is 24.5 µM.

Question: S=P(N1CC1)(N1CC1)N1CC1 was tested. Which GI50 (MDA-N) did it give?
Answer: The GI50 was 257 µM.

Question: And the TGI (MDA-N)?
Answer: The TGI was 426 µM and 671 µM.

Question: And the TGI (P388 leukemia)?
Answer: Its TGI is 328 µM.

Question: And the TGI (P388/ADR leukemia)?
Answer: Its TGI is 351 µM.

Question: And the TGI (SN12K1 renal)?
Answer: The TGI was 373 µM.

Question: How did the TGI (MDA-N) turn out when C=CC(Cl)(CBr)CCC(Br)C(C)(C)Cl (stereo not drawn) was run?
Answer: The TGI was 32.4 µM.

Question: How did the TGI (MDA-N) turn out when C=C(c1ccccc1)[C@@]1(O)CC[C@@H]1N(CC#N)Cc1ccccc1 was run?
Answer: Its TGI is 40 µM.

Question: With CSc1nc(SC)c2c(CO)c(Br)n(Cc3ccccc3)c2n1 as the compound, how does the TGI (MDA-N) read?
Answer: The TGI was greater than 100 µM.

Source: PubChem BioAssay (NCI)
